Assay results as given in PubChem BioAssay AID1919015 (Molecular Pharmacology Branch, DTP, NCI, 2023).
Values joined by “and” are separate entries in the source; they are usually repeats but may differ in a detail not shown here. Equal entries are not always repeated.

System: OVCAR-5 complex spheroids with HUVEC/MSC, viability, % test/control
Experiment: Anticancer human tumor OVCAR-5 cell line growth inhibition [AhR];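 also: spheroids exposed to compounds for 7 days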;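 as to viability, T/C: 100% = DMSO vehicle control wells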
Details: for viability, T/C: stronger effect = lower value
In short: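 Complex tumor spheroids co-cultured with HUVEC and human MSC stroma; AhR antagonists tested in combination with standard-of-care and investigational agents. Top concentration at or near clinical Cmax (else 10 microM), half-log dilutions; growth expressed as percent test/control.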

[1] = curve of first compound, second compound 0.1 µM
[2] = curve of first compound, second compound 0.316 µM
[3] = curve of first compound, second compound 1 µM
[4] = curve of first compound, second compound 3.16 µM
[5] = curve of first compound, second compound 10 µM
[6] = second compound 0.1 µM, first compound 0.000949 µM
[7] = second compound 0.1 µM, first compound 0.003 µM
[8] = second compound 0.1 µM, first compound 0.00949 µM
[9] = second compound 0.1 µM, first compound 0.03 µM
[10] = second compound 0.1 µM, first compound 0.0949 µM
[11] = second compound 0.1 µM, first compound 0.3 µM
[12] = second compound 0.316 µM, first compound 0.000949 µM
[13] = second compound 0.316 µM, first compound 0.003 µM
[14] = second compound 0.316 µM, first compound 0.00949 µM
[15] = second compound 0.316 µM, first compound 0.03 µM
[16] = second compound 0.316 µM, first compound 0.0949 µM
[17] = second compound 0.316 µM, first compound 0.3 µM
[18] = second compound 1 µM, first compound 0.000949 µM
[19] = second compound 1 µM, first compound 0.003 µM
[20] = second compound 1 µM, first compound 0.00949 µM
[21] = second compound 1 µM, first compound 0.03 µM
[22] = second compound 1 µM, first compound 0.0949 µM
[23] = second compound 1 µM, first compound 0.3 µM
[24] = second compound 3.16 µM, first compound 0.000949 µM
[25] = second compound 3.16 µM, first compound 0.003 µM
[26] = second compound 3.16 µM, first compound 0.00949 µM
[27] = second compound 3.16 µM, first compound 0.03 µM
[28] = second compound 3.16 µM, first compound 0.0949 µM
[29] = second compound 3.16 µM, first compound 0.3 µM
[30] = second compound 10 µM, first compound 0.000949 µM
[31] = second compound 10 µM, first compound 0.003 µM
[32] = second compound 10 µM, first compound 0.00949 µM
[33] = second compound 10 µM, first compound 0.03 µM
[34] = second compound 10 µM, first compound 0.0949 µM
[35] = second compound 10 µM, first compound 0.3 µM
[36] = second compound 0.1 µM, first compound 0.0316 µM
[37] = second compound 0.1 µM, first compound 0.1 µM
[38] = second compound 0.1 µM, first compound 0.316 µM
[39] = second compound 0.1 µM, first compound 1 µM
[40] = second compound 0.1 µM, first compound 3.16 µM
[41] = second compound 0.1 µM, first compound 10 µM
[42] = second compound 0.316 µM, first compound 0.0316 µM
[43] = second compound 0.316 µM, first compound 0.1 µM
[44] = second compound 0.316 µM, first compound 0.316 µM
[45] = second compound 0.316 µM, first compound 1 µM
[46] = second compound 0.316 µM, first compound 3.16 µM
[47] = second compound 0.316 µM, first compound 10 µM
[48] = second compound 1 µM, first compound 0.0316 µM
[49] = second compound 1 µM, first compound 0.1 µM
[50] = second compound 1 µM, first compound 0.316 µM
[51] = second compound 1 µM, first compound 1 µM
[52] = second compound 1 µM, first compound 3.16 µM
[53] = second compound 1 µM, first compound 10 µM
[54] = second compound 3.16 µM, first compound 0.0316 µM
[55] = second compound 3.16 µM, first compound 0.1 µM
[56] = second compound 3.16 µM, first compound 0.316 µM
[57] = second compound 3.16 µM, first compound 1 µM
[58] = second compound 3.16 µM, first compound 3.16 µM
[59] = second compound 3.16 µM, first compound 10 µM
[60] = second compound 10 µM, first compound 0.0316 µM
[61] = second compound 10 µM, first compound 0.1 µM
[62] = second compound 10 µM, first compound 0.316 µM
[63] = second compound 10 µM, first compound 1 µM
[64] = second compound 10 µM, first compound 3.16 µM
[65] = second compound 10 µM, first compound 10 µM

`Nc1ncn(C2CC(O)C(CO)S2)c(=O)n1` (configuration not stated) + CC(CO)NC(=O)c1cc(-c2ccc(Cl)cc2)nn(-c2cnn(C)c2)c1=O showed an IC50 [1] greater than 0.3 µM, an IC50 [2] greater than 0.3 µM and an IC50 [3] greater than 0.3 µM. For the same compound, the IC50 [4] was greater than 0.3 µM, the IC50 [5] was greater than 0.3 µM and the viability, T/C [6] was 104%. The viability, T/C [7] was 110%, the viability, T/C [8] was 106% and the viability, T/C [9] was 110%. For the same compound, the viability, T/C [10] was 103%, the viability, T/C [11] was 85.3% and the viability, T/C [12] was 103%. For the same compound, the viability, T/C [13] was 109%, the viability, T/C [14] was 109% and the viability, T/C [15] was 105%. It also gave a viability, T/C [16] of 101%, a viability, T/C [17] of 84.6% and a viability, T/C [18] of 109%. It also gave a viability, T/C [19] of 112%, a viability, T/C [20] of 113% and a viability, T/C [21] of 109%. It also gave a viability, T/C [22] of 106%, a viability, T/C [23] of 91.9% and a viability, T/C [24] of 101%. The viability, T/C [25] was 104%, the viability, T/C [26] was 102% and the viability, T/C [27] was 104%. The viability, T/C [28] was 93.3%, the viability, T/C [29] was 83.5% and the viability, T/C [30] was 99.7%. For the same compound, the viability, T/C [31] was 101%, the viability, T/C [32] was 98.9% and the viability, T/C [33] was 98.4%. It also gave a viability, T/C [34] of 93% and a viability, T/C [35] of 86.2%.
`CCc1c2c(nc3ccc(O)cc13)-c1cc3c(c(=O)n1C2)COC(=O)[C@]3(O)CC` + CC(CO)NC(=O)c1cc(-c2ccc(Cl)cc2)nn(-c2cnn(C)c2)c1=O showed an IC50 [1] of 0.00663 µM, an IC50 [2] of 0.00574 µM and an IC50 [3] of 0.00731 µM. It also gave an IC50 [4] of 0.00558 µM, an IC50 [5] of 0.0106 µM and a viability, T/C [6] of 77.5%. For the same compound, the viability, T/C [7] was 55.8%, the viability, T/C [8] was 42.6% and the viability, T/C [9] was 37.8%. It also gave a viability, T/C [10] of 17.8%, a viability, T/C [11] of 6.98% and a viability, T/C [12] of 76%. The viability, T/C [13] was 54%, the viability, T/C [14] was 43.9% and the viability, T/C [15] was 32.8%. It also gave a viability, T/C [16] of 18.7%, a viability, T/C [17] of 6.72% and a viability, T/C [18] of 70.5%. It also gave a viability, T/C [19] of 54.6%, a viability, T/C [20] of 49.7% and a viability, T/C [21] of 35.9%. For the same compound, the viability, T/C [22] was 15.5%, the viability, T/C [23] was 7.35% and the viability, T/C [24] was 56.8%. It also gave a viability, T/C [25] of 47.6%, a viability, T/C [26] of 48.5% and a viability, T/C [27] of 35.5%. For the same compound, the viability, T/C [28] was 14.7%, the viability, T/C [29] was 6.85% and the viability, T/C [30] was 51.7%. For the same compound, the viability, T/C [31] was 51.4%, the viability, T/C [32] was 57.5% and the viability, T/C [33] was 34.5%. The viability, T/C [34] was 17.7% and the viability, T/C [35] was 7.22%.
In the case of `CC1COCCN1c1cc(C2(S(C)(=N)=O)CC2)nc(-c2ccnc3[nH]ccc23)n1` (configuration not stated) + Cc1cncc(-c2nc(NCCc3c[nH]c4ccccc34)c3ncn(C(C)C)c3n2)c1, the IC50 [1] is reported as 9.78 µM, the IC50 [2] is reported as greater than 10 µM and the IC50 [3] is reported as 9.58 µM. The IC50 [4] was 5.84 µM, the IC50 [5] was less than 0.0316 µM and the viability, T/C [36] was 99.4%. It also gave a viability, T/C [37] of 102%, a viability, T/C [38] of 106% and a viability, T/C [39] of 101%. It also gave a viability, T/C [40] of 92%, a viability, T/C [41] of 49.1% and a viability, T/C [42] of 99.6%. It also gave a viability, T/C [43] of 98.4%, a viability, T/C [44] of 99.3% and a viability, T/C [45] of 103%. The viability, T/C [46] was 90%, the viability, T/C [47] was 51.6% and the viability, T/C [48] was 92%. It also gave a viability, T/C [49] of 95.6%, a viability, T/C [50] of 94.9% and a viability, T/C [51] of 96.4%. The viability, T/C [52] was 86%, the viability, T/C [53] was 48.5% and the viability, T/C [54] was 74.5%. The viability, T/C [55] was 79.2%, the viability, T/C [56] was 80.5% and the viability, T/C [57] was 82.4%. The viability, T/C [58] was 62.6%, the viability, T/C [59] was 38.9% and the viability, T/C [60] was 19.6%. The viability, T/C [61] was 22.8%, the viability, T/C [62] was 22.9% and the viability, T/C [63] was 18.6%. It also gave a viability, T/C [64] of 12.7% and a viability, T/C [65] of 6.44%.
`COc1ccc([C@@H](O)c2cc(-c3ncnc4cc(N5CCOCC5)ccc34)c(F)cc2Cl)nn1` + Cc1cncc(-c2nc(NCCc3c[nH]c4ccccc34)c3ncn(C(C)C)c3n2)c1 gave an IC50 [1] of 3.23 µM, an IC50 [2] of 3.56 µM and an IC50 [3] of 2.74 µM. The IC50 [4] was 1.66 µM, the IC50 [5] was less than 0.0316 µM and the viability, T/C [36] was 104%. It also gave a viability, T/C [37] of 104%, a viability, T/C [38] of 100% and a viability, T/C [39] of 80.9%. For the same compound, the viability, T/C [40] was 50.9%, the viability, T/C [41] was 28.8% and the viability, T/C [42] was 104%. It also gave a viability, T/C [43] of 103%, a viability, T/C [44] of 94% and a viability, T/C [45] of 80%. For the same compound, the viability, T/C [46] was 52%, the viability, T/C [47] was 29.1% and the viability, T/C [48] was 98.7%. It also gave a viability, T/C [49] of 101%, a viability, T/C [50] of 95% and a viability, T/C [51] of 74.9%. It also gave a viability, T/C [52] of 47.1%, a viability, T/C [53] of 28.8% and a viability, T/C [54] of 83.5%. The viability, T/C [55] was 83.3%, the viability, T/C [56] was 79.8% and the viability, T/C [57] was 59.9%. The viability, T/C [58] was 36.5%, the viability, T/C [59] was 20% and the viability, T/C [60] was 14.2%. It also gave a viability, T/C [61] of 13.6%, a viability, T/C [62] of 12.2% and a viability, T/C [63] of 7.42%. For the same compound, the viability, T/C [64] was 4.87% and the viability, T/C [65] was 3.46%.
For `O=C(C=Cn1cnc(-c2cc(C(F)(F)F)cc(C(F)(F)F)c2)n1)NNc1cnccn1`, the viability, T/C (compound 0.00949 µM) was 109% and 108% and 104%, the viability, T/C (compound 0.03 µM) was 108% and 109% and 105% and the viability, T/C (compound 0.0949 µM) was 101% and 99.5% and 96.1%. The viability, T/C (compound 0.3 µM) was 85.9% and 76.1% and 78.1%, the viability, T/C (compound 0.949 µM) was 68.2% and 58.4% and 60.8% and the viability, T/C (compound 3 µM) was 47% and 42% and 40.6%. The IC50 (curve of compound) was 2.56 µM and 1.61 µM and 1.71 µM.
